Among the data in patent US20080311589A1, “METHOD OF HIGH-THROUGHPUT SCREENING OF MOLECULES AND COMPOUNDS FOR THEIR EFFECTS ON BIOLOGICAL AND CHEMICAL PROCESSES” (priority 1999, published 2008) are BrdU incorporation and EC50 (effective concentration) in the cytoblot assay values, retold here.

For assay [1], the system named is Mv1Lu mink lung epithelial cells. Nature of the assay: 6144 well BrdU cytoblot. The format is cell-based. The conditions noted are these: approximately 6000 nanowells. As to the method: FIG. 4. BrdU incorporation is detected in 6144 well plates with a cytoblot. (a) The actual size of the wells of a 6144 well plate (nanowells; You et al. Chem. Biol. 4:969-975. 1997) is shown. (b) 25× magnification of the blot shown in (a). The indicated number of cells (Mv1Lu) were seeded in […] volumes in duplicate in 1% mink medium with or without 10 μM BrdU or 400 pM TGF-β, as indicated. The cells were cultured for 24 hours at 37° C. with 5% CO2 and then a 6144 well cytoblot was performed (see protocols). (c) Two separate nanowell plates (You et al. Chem. Biol. 4:969-975. 1997) were seeded with 20,000 Mv1Lu cells/mL in 1% mink medium with or without 500 pM TGF-13. After 26 hours at 37° C. with 5% CO2 BrdU was added to a final concentration of 10 μM. The cells were incubated for an additional 18 hours at 37° C. with 5% CO2 and then a 6144 well cytoblot was performed (see protocols).
The anti-BrdU cytoblot assay was then tested for its ability to detect the inhibition of BrdU uptake in a plate containing approximately 6000 arrayed “nanowells” (You et al. Chem Biol 4:969-975. 1997. Incorporated herein by reference). […] The following protocol provides experimental detail.
The reagents to be tested were prepared in 1536 well plates with one or more test compound per well. […]

The test system of the next assay is phosphorylated nucleolin. Nature of the assay: anti-phosphonucleolin (TG-3) cytoblot screen. The format is cell-based, human. As for the experimental part: A detection assay providing an indirect measure of the mitotic index of a population of cells was used to identify compounds that act as cell cycle inhibitors. By measuring the level of phosphorylation of a chromatin-associated protein using the anti-phosphonucleolin (TG-3) cytoblot (Stockwell et al. 1999), nucleolin the mitotic index (i.e., the number of cell in mitosis) was assessed. In brief, the library compounds were dissolved in DMSO (5 mg/ml) and pin-transferred from 384-well plates (Library plates #1-51) for a final concentration 5-10 ug/ml using a 384-polypropylene pin array (Genetix) into 384-well screening plates (Nunc) seeded with 4,000 A549 human lung carcinoma cells (ATCC) in DMEM+ and incubated for 22 hours at 37° C. with 5% CO2. Compounds from library plates #1-24 were pooled at two compounds per well, while compounds from library plates #25-51 were tested singly. […] The reactivity of the anti-phosphonucleolin antibody was measured using enhanced chemiluminescent detection (Amersham) after incubation of each well with a horseradish peroxidase-coupled anti-mouse IgM secondary antibody (Sigma) and addition of luminol. The relative luminescence produced from each well was measured on an automatic plate reader (LJL Analyst). […]

In the case of “TGF-β: anti-mitogen transforming growth factor β, multifunctional polypeptide signaling factor”, the BrdU incorporation result in assay [1] is recorded as “prevented BrdU incorporation”.
In turn, monastrol had an EC50 (effective concentration) in the cytoblot assay in the assay on phosphorylated nucleolin of 22 µM.
